Measurements as given in US20240148676A1, “COMBINATION THERAPY WITH PD-1 SIGNAL INHIBITOR” (Kyoto University, priority 2021, published 2024).

How the values were obtained:
[1] = tested on: LLC cells; assay: LLC tumor growth in WT mice, anti-PD-L1 antibody and/or CD45 inhibitor; type: in vivo, mouse; details: young WT mice; for tumor growth: CD45 inhibitor (3 mg/kg i.p., from day 7, three times) in combination with anti-PD-L1 antibody (2 mg/kg, days 7, 13, 19), LLC 2×10^6; for inhibitory effect against LLC tumor growth: CD45 inhibitor alone
Experimental: (§1) CD45 inhibition (FIG. 12): 2-(4-acetylanilino)-3-chloronaphthoquinone (211) (530197, EDM Millipore) (12) (3 mg/kg) or N-(9,10-dioxo-9,10-dihydrophenanthren-2-yl)-2,2-dimethylpropionamide (PTP) (540215, Sigma-Aldrich) (13) (3 mg/kg) was administered intraperitoneally to mice before tumor cell inoculation or 5 or 7 days after tumor cell inoculation. MC38 cells (5×10^5 or 1×10^6) or LLC cells (2×10^6) were intradermally inoculated into the right flank of mice (day 0). Seven days after LLC cell inoculation (day 7), mice received intraperitoneal administration of anti-PD-L1 antibody (clone 1-111A.4) (2 mg/kg). Administration of this anti-PD-L1 antibody was repeated 3 times at an interval of 6 days (on days 7, 13, and 19). Tumor size was measured with calipers, and tumor volume was calculated using the following formula: π (length×breadth×height)/6.
LLC cells (2×10^6 cells/tumor) were i.d. inoculated into the right flank of young (1 to 2-month old) WT mice (FIG. 16A). After 7 days, therapy was started using anti-PD-L1 antibody alone or in combination with CD45 inhibitor (211 or PTP) to examine tumor growth (FIG. 16A). […] Further, a therapeutic effect of using CD45 inhibitor alone was examined under similar conditions.

[2] = tested on: MC38 murine colon adenocarcinoma cells; assay: MC38 tumor growth in PD-1 KO mice given CD45 inhibitor; type: in vivo, mouse; details: for tumor volume: PD-1 KO mice (2-month old), vs vehicle
Experimental: as §1
CD45 inhibitor (211) was administered intraperitoneally at 3 mg/kg to PD-1 KO mice (2-month old) once 3 days before inoculation of MC38 murine colon adenocarcinoma cells (preadministration) or 3 times 5 days after inoculation of MC38 cells (postadministration) (FIG. 13A and B). MC38 cells were intradermally inoculated into the right flank of miceat 1×10^6 cells/tumor.
CD45 inhibitor (211) was administered intraperitoneally at 3 mg/kg to young (1 to 2-month old) or aged (14 to 16-month old) PD-1 KO mice […]. Three days after administration of 211, MC38 cells were intradermally inoculated into the right flank of mice at 5×10^5 cells/tumor, followed by monitoring tumor growth.

SMILES | tumor growth [1] | inhibitory effect against LLC tumor growth [1] | tumor growth ([2]; aged (14 to 16-month old) PD-1 KO mice, 3 mg/kg i.p. 3 days before MC38 (5×10^5) inoculation) | tumor volume ([2]; postadministration: 3 mg/kg i.p. 3 times from day 5 after MC38 (1×10^6) inoculation) | tumor volume ([2]; preadministration: 3 mg/kg i.p. once 3 days before MC38 (1×10^6) inoculation)
CC(C)(C)C(=O)Nc1ccc2c(c1)C(=O)C(=O)c1ccccc1-2 [PTP, N-(9,10-dioxo-9,10-dihydrophenanthren-2-yl)-2,2-dimethylpropionamide] | significantly inhibited | significant inhibitory effect was not shown | – | – | –
CC(=O)c1ccc(NC2=C(Cl)C(=O)c3ccccc3C2=O)cc1 [compound 211, 2-(4-acetylanilino)-3-chloronaphthoquinone] | significantly inhibited | significant inhibitory effect was not shown | strongly inhibited | significantly reduced | significantly reduced
